Laboratory results published in patent publication US20110039763A1, “TARGETED ANTIMICROBIAL MOIETIES” (C3 JIAN, INC., priority 2009, published 2011).
Entries after “also recorded” stand apart in the source; their conditions may differ. Square brackets hold non-standard residues; d marks the D form. Ends that are not written are not given here. dOrn = NCCC[C@@H](N)C(=O)O

What follows are substances tested on microorganisms (assay: Targeting peptide binding to target microorganisms (Tables 3, 10, 12)). Details: data not shown.

| Substance | bacterial binding |
| --- | --- |
| DAANEA-GGG [BL-1] | no bacterial binding |

Same assay, conditions: microorganism(s) the targeting peptide binds; binding in aqueous buffers that varied with peptide solubility, preferably 1x PBS

| Substance | Target(s) |
| --- | --- |
| 1T-268 (PITPKKEKCGLGTYAPKNPVFSKSRV; Peptide with targeting and/or antimicrobial activity) | F. nucleatum; also recorded: S. mutans; also recorded: S. oralis; also recorded: S. sanguinis |
| 1T-269 (PLYVAAVEKINTAKKH; Peptide with targeting and/or antimicrobial activity) | F. nucleatum; also recorded: S. mutans; also recorded: S. oralis; also recorded: S. sanguinis |
| 1T-270 (VHEFDIQKILQNR; Peptide with targeting and/or antimicrobial activity) | F. nucleatum; also recorded: S. mutans; also recorded: S. oralis; also recorded: S. sanguinis |
| 1T-272 (QLAPIDKQLKAVKKIAFYESESTAAKAVTVA; Peptide with targeting and/or antimicrobial activity) | F. nucleatum; also recorded: S. mutans; also recorded: S. oralis; also recorded: S. sanguinis |
| 1T-273 (YNEPNYKWLESYKIYKQRCEDRTGMYYTEET; Peptide with targeting and/or antimicrobial activity) | F. nucleatum; also recorded: P. gingivalis; also recorded: T. denticola; also recorded: S. mitis; also recorded: S. mutans; also recorded: S. oralis |
| 1T-274 (ETTTEINAIKLHRIKQRSPQGTRRVN; Peptide with targeting and/or antimicrobial activity) | F. nucleatum; also recorded: S. mutans; also recorded: S. oralis; also recorded: S. sanguinis |
| 1T-282 (ISLVFPAYT; Peptide with targeting and/or antimicrobial activity) | F. nucleatum; also recorded: P. gingivalis; also recorded: S. gordonii; also recorded: S. mitis; also recorded: S. mutans; also recorded: S. oralis; also recorded: S. salivarious; also recorded: S. sanguinis |
| 1T-286 (LGFFNNKADLVKADTERDNRMSSLKIKDL; Peptide with targeting and/or antimicrobial activity) | S. sanguinis |
| 1T-287 (KGYPLPFQYRLNNH; Peptide with targeting and/or antimicrobial activity) | P. gingivalis; also recorded: T. denticola; also recorded: S. gordonii; also recorded: S. mitis; also recorded: S. mutans; also recorded: S. oralis; also recorded: S. salivarious; also recorded: S. sanguinis |
| 1T-288 (RWVGGEPSADIYLSAKDTKT; Peptide with targeting and/or antimicrobial activity) | F. nucleatum; also recorded: S. gordonii; also recorded: S. salivarious; also recorded: S. sanguinis |
| 1T-289 (EPSADIYLSAKDTKT; Peptide with targeting and/or antimicrobial activity) | F. nucleatum; also recorded: P. gingivalis; also recorded: S. gordonii; also recorded: S. mitis; also recorded: S. mutans; also recorded: S. oralis; also recorded: S. sanguinis |
| 1T-291 (DMKIIKLYIKILSFLFIKYCNKKLNSVKLKA; Peptide with targeting and/or antimicrobial activity) | A. naeslundii; also recorded: F. nucleatum; also recorded: P. gingivalis; also recorded: T. denticola; also recorded: S. mitis; also recorded: S. mutans; also recorded: S. oralis |
| 1T-294 (YDKIADGVFKIGKRGVL; Peptide with targeting and/or antimicrobial activity) | T. denticola |
| 1T-295 (KYKLKKIIL; Peptide with targeting and/or antimicrobial activity) | S. mitis; also recorded: S. salivarious; also recorded: S. sanguinis |
| 1T-297 (RSLRLNNALTKLPKLWYNRIKEAFYAYNDYDK; Peptide with targeting and/or antimicrobial activity) | A. naeslundii; also recorded: F. nucleatum; also recorded: T. denticola; also recorded: S. mitis; also recorded: S. mutans; also recorded: S. oralis |
| 1T-301 (SKLPRVLDASLKL; Peptide with targeting and/or antimicrobial activity) | F. nucleatum; also recorded: S. gordonii; also recorded: S. sanguinis |
| 1T-304 (STAGEASRRTASEASRRTAAKLRG; Peptide with targeting and/or antimicrobial activity) | P. gingivalis |
| CHA0 (D[dOrn]KTAA[dOrn]K; not fully specified (bridges)) | P. fluorescens |
| PF-014 (HPTDNKHN; Peptide with targeting and/or antimicrobial activity) | E. coli; also recorded: C. jeikeium |
| PF-016 (RKQYDDLSFNFLY; Peptide with targeting and/or antimicrobial activity) | S. epidermidis; also recorded: E. faecalis; also recorded: C. jeikeium |
| PF-018 (YYKTYFKEV; Peptide with targeting and/or antimicrobial activity) | E. coli; also recorded: C. jeikeium |
| PF-038 (MAYKDEGKETKFAVKGYKD; Peptide with targeting and/or antimicrobial activity) | M. luteus |
| PF-039 (MLEEKNKSL; Peptide with targeting and/or antimicrobial activity) | P. mirabilis; also recorded: C. jeikeium |
| PF-044 (KLKKYIHKPD; Peptide with targeting and/or antimicrobial activity) | S. epidermidis and M. luteus and MRSA and C. jeikeium |
| PF-047 (NQEPSLQQDKEQKDNKG; Peptide with targeting and/or antimicrobial activity) | S. mutans |
| PF-050 (SYYLKRREEKGK; Peptide with targeting and/or antimicrobial activity) | S. epidermidis; also recorded: M. luteus; also recorded: E. coli; also recorded: C. jeikeium |
| PF-054 (VSISRFIGGGHVFNGNNKRNL; Peptide with targeting and/or antimicrobial activity) | S. epidermidis; also recorded: E. coli |
| PF-055 (GHVFNGNNKRNL; Peptide with targeting and/or antimicrobial activity) | S. mutans |
| PF-060 (HSSHL; Peptide with targeting and/or antimicrobial activity) | E. coli; also recorded: C. albicans; also recorded: C. jeikeium |
| PF-062 (MKKKRINNDILGRMIYSSSIDKRNLYNLKYYE; Peptide with targeting and/or antimicrobial activity) | S. epidermidis and M. luteus and E. coli and P. aeruginosa and MRSA and S. pneumoniae and E. faecalis and C. jeikeium |

Same assay, conditions: microorganism(s) the targeting peptide binds; binding in aqueous buffers varied with peptide solubility, preferably 1x PBS

| Substance | Target(s) |
| --- | --- |
| AIEGVIKKGACFKLLRHEMF [PF-167] | S. epidermidis and E. coli and C. albicans and MRSA and C. jeikeium and C. jejuni |
| HIKETR (Peptide with targeting and/or antimicrobial activity) [PF-222] | S. epidermidis |
| MKKLVAALAVIVILTGCVYDPVNYDKIHDQEFQDHLRQNG [PF-252] | S. mutans |
| MLTSRKKRLKKIVEEQNKKDESI [PF-336] | S. mutans; also recorded: E. coli |
| PEIIKIVSGLL [PF-758] | S. epidermidis and M. luteus and E. coli and MRSA and S. pneumoniae and E. faecalis and C. jeikeium |
| PF670 (chain 1 TVIVAPMHSGV; chain 2 TVIVAPMHSGV; Peptide with targeting and/or antimicrobial activity) | Mycobacteria spp |
| PF-097 (QPTQGEQGTRPRRPTPMRGLLI; Peptide with targeting and/or antimicrobial activity) | C. jeikeium |
| PF-101 (DPVPERQEQACACHRTAKPGK; Peptide with targeting and/or antimicrobial activity) | S. mutans |
| PF-104 (ERTAVNDLWI; Peptide with targeting and/or antimicrobial activity) | MRSA and C. jeikeium |
| PF-130 (LQRSDEESMPRRHEKYS; Peptide with targeting and/or antimicrobial activity) | E. faecalis; also recorded: C. jeikeium; also recorded: C. jejuni |
| PF-131 (RRAAARTKGNRR; Peptide with targeting and/or antimicrobial activity) | S. epidermidis and E. coli and MRSA and C. jeikeium |
| PF-132 (RPGDGAAEQGRSR; Peptide with targeting and/or antimicrobial activity) | S. epidermidis; also recorded: C. jeikeium |
| PF-134 (GKAMKRQDCSAL; Peptide with targeting and/or antimicrobial activity) | S. epidermidis; also recorded: C. jeikeium |
| PF-138 (AVHHSLLFR; Peptide with targeting and/or antimicrobial activity) | S. epidermidis and M. luteus and P. mirabilis and E. coli and C. albicans and MRSA and C. jeikeium and C. jejuni |
| PF-141 (VVRRFQGM; Peptide with targeting and/or antimicrobial activity) | S. epidermidis and M. luteus and C. albicans and MRSA and C. jeikeium |
| PF-142 (GIDRGCQAAR; Peptide with targeting and/or antimicrobial activity) | S. mutans |
| PF-146 (GCGKRRIITKSASRDTR; Peptide with targeting and/or antimicrobial activity) | S. epidermidis and M. luteus and P. aeruginosa and C. albicans and MRSA and C. jeikeium |
| PF-147 (RRPRRRRSGHGQSASAA; Peptide with targeting and/or antimicrobial activity) | S. epidermidis and M. luteus and MRSA |
| PF-150 (EIQAKGTG; Peptide with targeting and/or antimicrobial activity) | S. epidermidis and MRSA |
| PF-151 (EEYPARVPLSGEDVTEARRH; Peptide with targeting and/or antimicrobial activity) | S. epidermidis and MRSA and E. faecalis and C. jeikeium |
| PF-152 (VGYFIWKDSHSRKG; Peptide with targeting and/or antimicrobial activity) | S. epidermidis and C. albicans and MRSA and E. faecalis and C. jeikeium |
| PF-154 (GIKKSKHPSTDDYVVKTTIDSL; Peptide with targeting and/or antimicrobial activity) | S. mutans |
